From patent EP4772509A1, “KINESIN KIF18A INHIBITOR, AND APPLICATION THEREOF” (Shanghai Apeiron Therapeutics Company Limited, priority 2023, dated 2025)
Like-named read-outs stand apart in the source and are kept apart here.

What was measured:
[1] = tested on: OVCAR3 cells; test: Cell proliferation activity test (CyQUANT Direct); format: cell-based; settings: 3 days, 0.2% DMSO, CyQUANT fluorescence
Procedure: Materials and Cells: OVCAR3 cells were purchased from Nanjing Cobioer Biosciences Co., Ltd. RPMI-1640 medium, fetal bovine serum, and the CyQUANT Direct Cell Proliferation Assay kit were purchased from Thermo Fisher Scientific, USA; 96-well cell culture plates were sourced from Corning, USA.
Cell Culture: OVCAR3 cells were cultured with RPMI-1640 medium containing 10% fetal bovine serum and incubated in a 5% CO2 incubator at 37°C. Only cells in the logarithmic growth phase could be used for the test.
OVCAR3 cells were inoculated into a 96-well cell culture plate at 90 µL per well and incubated overnight in a 5% CO2 incubator at 37°C. The compound powder was dissolved in DMSO to prepare a stock solution of 10 mM. Then gradient dilution was performed for the compounds in the microplate to achieve a final concentration of 0-10 µM. 10 µL of cell culture medium containing compounds was added to each well to make the final DMSO content 0.2%. The cell plates were incubated in a 5% CO2 incubator at 37°C for 3 days. 100 µL of CyQUANT detection reagent was added to each well, reacted at 37°C for 60 min, and fluorescence detection was performed using the PerkinElmer Envision.

[2] = tested on: HT29 cells; test: CyQuant cell proliferation activity test; format: cell-based; settings: HT29 at 2000 cells per well, 3 days, 0.2% DMSO, XLFIT
Procedure: Materials and Cells: HT29 cells were purchased from Nanjing Cobioer Biosciences Co., Ltd.; RPMI-1640 medium, fetal bovine serum, Trypsin-EDTA (0.25%), 96-well plates, and CyQuant reagents were purchased from ThermoFisher (USA); DMSO was purchased from SIGMA (USA).
Cell Culture: HT29 cells were cultured with RPMI-1640 containing 10% fetal bovine serum under the condition of 37°C and 5% CO2. Only cells in the logarithmic growth phase could be used for the test.
Cell Proliferation Activity Test: CyQuant reagent was used to detect the proliferation inhibitory activity of compounds on HT29 cells. The cell density was adjusted, and 100 µL per well was inoculated into a 96-well plate (HT29 at 2000 cells per well), then incubated overnight at 37°C and 5% CO2. Add compounds of various target concentrations (initial concentration of 3000 nM, 3-fold dilution, 9 concentration gradients), and make the DMSO content 0.2%. The cell plate was incubated at 37°C in 5% CO2 for 3 days. CyQuant reagent was added and incubated for 1 h. The plates were read by Envision, and IC50 was calculated using XLFIT.

[3] = target: T1, Human KIF18A (amino acid sequence 1-417) (Homo sapiens, UniProt Q8NI77); test: Enzymatic activity test (ADP-Glo, microtubule-stimulated ATPase); format: biochemical; settings: 60 µg/mL microtubules, 25 µM ATP, 2.5 nM KIF18A protein, 120 min at ambient temperature, chemiluminescence; read-out: KIF18A IC50
T1 construct: purchased Viva Biotech (Shanghai) Ltd
T1 sequence (Q8NI77 1-417): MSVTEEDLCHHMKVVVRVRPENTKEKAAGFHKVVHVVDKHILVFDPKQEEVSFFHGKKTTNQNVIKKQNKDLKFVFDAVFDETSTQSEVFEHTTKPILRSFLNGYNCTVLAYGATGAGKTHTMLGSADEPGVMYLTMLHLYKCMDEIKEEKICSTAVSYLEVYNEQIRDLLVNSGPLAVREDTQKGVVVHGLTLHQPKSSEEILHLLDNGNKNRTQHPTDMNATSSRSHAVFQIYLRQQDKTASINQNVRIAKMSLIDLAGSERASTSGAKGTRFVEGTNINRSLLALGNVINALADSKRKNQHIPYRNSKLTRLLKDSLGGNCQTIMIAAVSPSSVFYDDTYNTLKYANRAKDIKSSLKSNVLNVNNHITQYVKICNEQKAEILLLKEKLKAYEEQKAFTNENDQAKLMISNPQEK
Procedure: Materials: Human KIF18A (amino acid sequence 1-417) was purchased from Viva Biotech (Shanghai) Ltd.; the ADP-Glo™ protein kinase kit was acquired from Promega, USA; tubulin was sourced from Cytoskeleton, USA; and the 384-well assay plate and Envision multifunctional microplate reader were obtained from PerkinElmer, USA.
Enzymatic Activity Test: The compound powder was dissolved in DMSO to prepare a stock solution of 10 mM. Then gradient dilution was performed for the compounds in the microplate to achieve a final concentration of 0-10 µM. Then, 2.5 µL each of tubulin, compound, ATP, and KIF18A protein were added to the microplate in sequence for reaction at ambient temperature for 120 min. The final concentrations in the enzyme reaction were 60 µg/mL for microtubules, 25 µM for ATP, and 2.5 nM for KIF18A protein. After the enzyme reaction, 10 µL of ADP-GLO reaction reagent was added to each well and incubated at room temperature for 30 min. After that, 20 µL of detection reagent was added to each well and incubated at room temperature for 30 min in the dark. Finally, chemiluminescence detection was performed using the PerkinElmer Envision.

With Cc1cc2nc(n1)N1CCC(F)(F)C(/C=C/CC3CCN(CC3)c3cc(NS(=O)(=O)CCO)c4ccccc4c3C(=O)N2)C1 (single isomer, unassigned) [Example 1D, (trans)-N-(1^4,1^4-difluoro-2^6-methyl-4-oxo-3-aza-2(2,4)-pyrimidin-1(1,3),6(1,4)-dipiperidin-5(1,2)-naphthacyclonon-8-en-5 ^4-yl)-2-hydroxyethane-1-sulfonamide] the IC50 [1] was 137 nM, the IC50 ([2]; read-out: HT-29 IC50) was 137 nM and the IC50 [3] was 211 nM.
With Cc1cc2nc(n1)N1CCC(F)(F)C(C=CCC3CCN(CC3)c3cc(NS(=O)(=O)CCO)c4c(c3C(=O)N2)CCC4=O)C1 (single isomer, unassigned) [Example 2A, N-(1^4,1^4-difluoro-2^6-methyl-5^1,4-dioxo-5^2,5^3-dihydro-5^1H-3-aza-2(2,4)-pyrimidin-1(1,3),6(1,4)-dipiperidin-5(4,5)-indenoheterocyclonon-8-en-5^7-yl)-2-hydroxyethane-1-sulfonamide] the IC50 [1] was 8 nM, the IC50 ([2]; read-out: HT-29 IC50) was 9 nM and the IC50 [3] was 35 nM.
Cc1cc2nc(n1)N1CCC(F)(F)C(C=CCC3CCN(CC3)c3cc(NS(=O)(=O)CCO)c4c(c3C(=O)N2)CCC4=O)C1 (single isomer, unassigned) [Example 2B, N-(1^4,1^4-difluoro-2^6-methyl-5^1,4-dioxo-5^2,5^3-dihydro-5^1H-3-aza-2(2,4)-pyrimidin-1(1,3),6(1,4)-dipiperidin-5(4,5)-indenoheterocyclonon-8-en-5^7-yl)-2-hydroxyethane-1-sulfonamide] gave an IC50 [1] of 639 nM, an IC50 ([2]; read-out: HT-29 IC50) of 639 nM and an IC50 [3] of 3550 nM.
Cc1cc2nc(n1)N1CCC(F)(F)C(C=CCC3CCN(CC3)c3cc(NS(=O)(=O)CCO)c4c(c3C(=O)N2)CCC4=O)C1 (single isomer, unassigned) [Example 2C, N-(1^4,1^4-difluoro-2^6-methyl-5^1,4-dioxo-5^2,5^3-dihydro-5^1H-3-aza-2(2,4)-pyrimidin-1(1,3),6(1,4)-dipiperidin-5(4,5)-indenoheterocyclonon-8-en-5^7-yl)-2-hydroxyethane-1-sulfonamide] showed an IC50 [1] of 25 nM, an IC50 ([2]; read-out: HT-29 IC50) of 25 nM and an IC50 [3] of 43 nM.
Cc1cc2nc(n1)N1CCC(F)(F)C(C=CCC3CCN(CC3)c3cc(NS(=O)(=O)CCO)c4c(c3C(=O)N2)CCC4=O)C1 (single isomer, unassigned) [Example 2D, N-(1^4,1^4-difluoro-2^6-methyl-5^1,4-dioxo-5^2,5^3-dihydro-5^1H-3-aza-2(2,4)-pyrimidin-1(1,3),6(1,4)-dipiperidin-5(4,5)-indenoheterocyclonon-8-en-5^7-yl)-2-hydroxyethane-1-sulfonamide] was tested, and the IC50 [1] was 679 nM, the IC50 ([2]; read-out: HT-29 IC50) was 679 nM and the IC50 [3] was 546 nM.
Compound Cc1cc2nc(n1)N1CCC(F)(F)C(CCCc3ccc(cc3)-c3cc(NS(=O)(=O)CCO)ccc3C(=O)N2)C1 (single isomer, unassigned) [Example 46A, N-(1^4,1^4-difluoro-2^6-methyl-4-oxo-3-aza-2(2,4)-pyrimidin-1(1,3)-piperidin-5(1,2),6(1,4)-diphenylheterocyclononane-5^4-yl)-2-hydroxyethane-1-sulfonamide] has an IC50 ([1]; Homo sapiens, OVCAR-3, 72 h) of 36 nM, an IC50 ([2]; Homo sapiens, HT-29, 72 h) of 58 nM and an IC50 [3] of 117 nM.
For COc1cc2nc(n1)N1CCC(F)(F)C(CCCc3ccc(cc3)-c3cc(NS(=O)(=O)CCO)ccc3C(=O)N2)C1 (single isomer, unassigned) [Example 51A, N-(1^4,1^4-difluoro-2^6-methoxy-4-oxo-3-aza-2(2,4)-pyrimidin-1(1,3)-piperidin-5(1,2),6(1,4)-dibenzylcyclononane-5^4-yl)-2-hydroxyethane-1-sulfonamide], the IC50 ([1]; Homo sapiens, OVCAR-3, 72 h) was 45 nM, the IC50 ([2]; Homo sapiens, HT-29, 72 h) was 39 nM and the IC50 [3] was 107 nM.
In the case of COc1cc2nc(n1)N1CCC(F)(F)C(CCCc3ccc(cc3)-c3cc(NS(=O)(=O)CCO)ccc3C(=O)N2)C1 (single isomer, unassigned) [Example 51B, N-(1^4,1^4-difluoro-2^6-methoxy-4-oxo-3-aza-2(2,4)-pyrimidin-1(1,3)-piperidin-5(1,2),6(1,4)-dibenzylcyclononane-5^4-yl)-2-hydroxyethane-1-sulfonamide], the IC50 [1] is reported as 72 nM, the IC50 ([2]; read-out: HT-29 IC50) is reported as 74 nM and the IC50 [3] is reported as 144 nM.
In the case of COc1cc2nc(n1)N1CCC(F)(F)C(CCCc3ccc(cc3)-c3cc(NS(=O)(=O)CCO)ncc3C(=O)N2)C1 (single isomer, unassigned) [Example 56A, N-(1^4,1^4-difluoro-2^6-methoxy-4-oxo-3-aza-2(2,4)-pyrimidin-5(3,4)-pyridin-1(1,3)-piperidin-6(1,4)-benzoazacyclononane-5^6-yl)-2-hydroxyethane-1-sulfonamide], the IC50 ([1]; Homo sapiens, OVCAR-3, 72 h) is reported as 188 nM, the IC50 ([2]; Homo sapiens, HT-29, 72 h) is reported as 378 nM and the IC50 [3] is reported as 41 nM.
COc1cc2nc(n1)N1CCC(F)(F)C(CCCc3ccc(cc3)-c3cc(NS(=O)(=O)CCO)ncc3C(=O)N2)C1 (single isomer, unassigned) [Example 56B, N-(1^4,1^4-difluoro-2^6-methoxy-4-oxo-3-aza-2(2,4)-pyrimidin-5(3,4)-pyridin-1(1,3)-piperidin-6(1,4)-benzoazacyclononane-5^6-yl)-2-hydroxyethane-1-sulfonamide] showed an IC50 [1] of 112 nM, an IC50 ([2]; read-out: HT-29 IC50) of 192 nM and an IC50 [3] of 9 nM.
Cc1cc2nc(n1)N1CCC(F)(F)C(C=CCC3=CC=C(S3)c3cc(NS(=O)(=O)CCO)ccc3C(=O)N2)C1 (single isomer, unassigned) [Example 57A, N-(1^4,1^4-difluoro-2^6-methyl-4-oxo-3-aza-2(2,4)-pyrimidin-1(1,3)-piperidin-6(2,5)-thiophene-5(1,2)-benzoazacyclon-8-en-5^4-yl)-2-hydroxyethane-1-sulfonamide] was tested, and the IC50 ([1]; Homo sapiens, OVCAR-3, 72 h) was 114 nM, the IC50 ([2]; Homo sapiens, HT-29, 72 h) was 39 nM and the IC50 [3] was 60 nM.
With Cc1cc2nc(n1)N1CCC(F)(F)C(/C=C\CC3CCN(CC3)c3cc(NS(=O)(=O)CCO)c4c(c3C(=O)N2)CCC4)C1 (stereo not drawn) [Example 4, N-(1^4,1^4-difluoro-2^6-methyl-4-oxo-5^2,5^3-dihydro-5^1H-3-aza-2(2,4)-pyrimidin-1(1,3),6(1,4)-dipiperidin-5(4,5)-indenoheterocyclonon-8-en-5^7-yl)-2-hydroxyethane-1-sulfonamide] the IC50 ([1]; Homo sapiens, OVCAR-3, 72 h) was 49 nM, the IC50 ([2]; Homo sapiens, HT-29, 72 h) was 55 nM and the IC50 [3] was 404 nM.
Work on COc1cc2nc(n1)N1CCC(F)(F)C(/C=C\CC3CCN(CC3)c3cc(NS(=O)(=O)CCO)c4c(c3C(=O)N2)CCC4=O)C1 (stereo not drawn) [Example 5, N-(1^4,1^4-difluoro-2^6-methoxy-5^1,4-dioxo-5^2,5^3-dihydro-5^1H-3-aza-2(2,4)-pyrimidin-1(1,3),6(1,4)-dipiperidin-5(4,5)-indenoheterocyclononane-8-en-5^7-yl)-2-hydroxyethane-1-sulfonamide] yielded an IC50 ([1]; Homo sapiens, OVCAR-3, 72 h) of 42 nM, an IC50 ([2]; Homo sapiens, HT-29, 72 h) of 42 nM and an IC50 [3] of 162 nM.
